Patent US8546392B2, “17Beta-hydroxysteroid dehydrogenase type 1 inhibitors for the treatment of hormone-related diseases” (Universitaet des Saarlandes, priority 2008, dated 2013)
Read-outs that look alike come from different tables or passages of the source.

Experiments:
17β-HSD2 = 17β-HSD2 (Homo sapiens (Human), UniProt P37059); experiment: 17β-HSD2 test assay (recombinant protein from Sf9 insect cells, 3H-estradiol/NAD+); type: biochemical; details: for inhibition at 0.1 µM: read-out: HSD2 100 nM (% inhibition); for inhibition at 1 µM: read-out: HSD2 1 μM (% inhibition)
Chain of 17β-HSD2 (P37059 whole entry): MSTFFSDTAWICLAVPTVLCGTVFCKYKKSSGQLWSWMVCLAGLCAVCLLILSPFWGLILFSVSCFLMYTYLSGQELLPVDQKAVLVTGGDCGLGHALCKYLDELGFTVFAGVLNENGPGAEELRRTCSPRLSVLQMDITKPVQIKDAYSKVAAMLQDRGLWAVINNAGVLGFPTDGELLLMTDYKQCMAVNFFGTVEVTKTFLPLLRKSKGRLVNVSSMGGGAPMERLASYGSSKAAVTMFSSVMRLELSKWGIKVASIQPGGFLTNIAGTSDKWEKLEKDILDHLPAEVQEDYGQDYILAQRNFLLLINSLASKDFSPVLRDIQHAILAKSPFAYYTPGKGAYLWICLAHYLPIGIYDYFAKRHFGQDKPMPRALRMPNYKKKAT
Description: Recombinant protein obtained from Sf9 insect cells (0.1 μg/ml) is incubated with 20 mM KH2PO4, pH 7.4, 30 nM ^3H-estradiol and 1 mM NAD+ for 30 min at RT in the presence of the potential inhibitor in a concentration of 1 μM or 100 nM. The stock solutions of the compounds are prepared in DMSO so that the final concentration of DMSO in the sample is 1%. After the prescribed incubation time, the reaction is quenched by adding trichloroacetic acid (10% final concentration). The samples are centrifuged in microtitration plates at 400 rpm for 10 min, and the supernatants are charged on a reversed-phase HPLC equipped with a Waters Symmetrie C18 column and
Waters Sentry Guard column. The isocratic HPLC run is performed at RT with a flow rate of 1 ml/min and acetonitrile/water 48:52 as the eluent. The radioactivity was measured by means of a Packard Flow Scintillation Analyzer. The percent inhibition was calculated by means of the formulas stated above.

17β-HSD1 = 17β-HSD1 (Homo sapiens (Human), UniProt P14061); experiment: 17β-HSD1 test assay (recombinant protein from Sf9 insect cells, 3H-estrone/NADPH); type: biochemical; details: for inhibition at 1 µM: read-out: HSD 1 μM (% inhibition of HSD1); for inhibition at 0.1 µM: read-out: HSD1 100 nM (% inhibition)
Chain of 17β-HSD1 (P14061 whole entry): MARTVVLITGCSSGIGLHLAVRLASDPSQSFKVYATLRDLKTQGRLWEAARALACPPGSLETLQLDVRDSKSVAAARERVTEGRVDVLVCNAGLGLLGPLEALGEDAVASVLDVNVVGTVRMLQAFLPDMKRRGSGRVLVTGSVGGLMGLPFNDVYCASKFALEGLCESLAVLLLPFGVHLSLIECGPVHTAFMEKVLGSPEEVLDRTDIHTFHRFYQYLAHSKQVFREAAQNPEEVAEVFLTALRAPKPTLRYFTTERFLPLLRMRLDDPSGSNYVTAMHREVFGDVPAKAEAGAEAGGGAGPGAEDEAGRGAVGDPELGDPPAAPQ
Outline: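 Sf9-expressed recombinant enzyme (0.1 μg/ml) with 30 nM 3H-estrone and 1 mM NADPH in 20 mM KH2PO4 pH 7.4, 30 min at RT; inhibitor at 1 μM or 100 nM, 1% DMSO final. Quenched with TCA; conversion measured by reversed-phase HPLC with flow scintillation detection.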

CYP2D6 = CYP2D6 (Homo sapiens (Human), UniProt P10635); experiment: P450 inhibition assay CYP2D6; type: biochemical; details: read-out: IC50 (mean ± SD) [μM] CYP2D6
Chain of CYP2D6 (P10635 whole entry): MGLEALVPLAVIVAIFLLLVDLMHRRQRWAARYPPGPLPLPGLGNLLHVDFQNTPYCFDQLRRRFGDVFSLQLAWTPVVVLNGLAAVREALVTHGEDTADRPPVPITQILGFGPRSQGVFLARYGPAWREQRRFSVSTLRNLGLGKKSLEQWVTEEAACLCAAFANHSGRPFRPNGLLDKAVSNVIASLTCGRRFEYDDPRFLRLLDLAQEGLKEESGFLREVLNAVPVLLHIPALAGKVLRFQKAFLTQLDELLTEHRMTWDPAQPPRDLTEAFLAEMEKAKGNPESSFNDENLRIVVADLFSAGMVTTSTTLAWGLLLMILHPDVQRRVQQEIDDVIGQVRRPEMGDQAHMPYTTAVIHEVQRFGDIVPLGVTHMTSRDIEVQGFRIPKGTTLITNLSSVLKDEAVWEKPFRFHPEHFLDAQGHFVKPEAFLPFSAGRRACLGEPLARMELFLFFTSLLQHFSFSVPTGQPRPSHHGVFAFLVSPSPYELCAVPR

estrogen receptor β = estrogen receptor β (Homo sapiens (Human), UniProt Q92731); experiment: Estrogen receptor binding assay, ERβ; details: relative binding affinity (estradiol: 100%)
Chain of estrogen receptor β (Q92731 whole entry): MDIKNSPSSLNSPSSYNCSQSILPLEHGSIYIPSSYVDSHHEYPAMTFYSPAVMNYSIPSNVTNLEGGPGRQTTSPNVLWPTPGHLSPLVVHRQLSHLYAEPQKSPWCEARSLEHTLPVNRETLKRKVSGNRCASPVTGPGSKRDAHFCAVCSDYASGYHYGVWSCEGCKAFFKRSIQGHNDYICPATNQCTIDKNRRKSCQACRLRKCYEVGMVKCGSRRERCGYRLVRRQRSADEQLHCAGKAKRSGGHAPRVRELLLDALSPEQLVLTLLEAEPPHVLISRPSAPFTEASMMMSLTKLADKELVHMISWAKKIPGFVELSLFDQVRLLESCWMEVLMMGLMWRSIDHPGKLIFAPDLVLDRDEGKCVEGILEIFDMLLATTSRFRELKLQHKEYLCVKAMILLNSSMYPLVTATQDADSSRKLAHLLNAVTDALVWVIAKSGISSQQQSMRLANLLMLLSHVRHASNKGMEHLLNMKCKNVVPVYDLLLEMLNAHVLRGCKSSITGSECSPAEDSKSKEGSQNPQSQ

[1] = CaCo-2 assay (transport experiments); type: in vitro ADME; details: human, Caco-2; initial donor concentration 50 μM
Description: (§1) Four reference compounds (atenolol, testosterone, ketoprofene and erythromycin) were employed in each assay for evaluating the transport properties of the CaCo-2 cells. The initial concentration of the compounds in the donor compartment was 50 μM (in buffer with 1% ethanol or DMSO). […] For glycoprotein P (P-gp) studies, bidirectional experiments were performed. The absorptive and secretory permeabilities (Papp(a-b) and Papp(b-a)) were determined. Thus, erythromycin was used as a substrate, and verapamil was used as an inhibitor of P-gp. Each experiment was performed in triplicate. The integrity of the monolayer was determined by means of TEER (transepithelial electric resistance) and the permeability for each assay was determined using Lucifer Yellow. All samples of the CaCo-2 transport experiments were analyzed by means of LC/MS/MS after dilution with buffer (1:1 with 2% acetic acid).

CaCo-2 cells = experiment: CaCo-2 assay (transport experiments); type: in vitro ADME; details: for Permeability: class in words; for final basolateral concentration [μM ± SD]: initial donor concentration 50 μM
Description: as §1

[2] = In vivo pharmacokinetics (rat), cassette dosing method; details: cassette dosing perorally 10 mg/kg, male Wistar rats; for AUC(0-t) / Tmax / AUC(0-inf): rat, plasma, po; for AUC(0-inf): extrapolated to ∞
Excerpt: Labrasol/water 1/1). The plasma profiles were established by means of LC-MS/MS.

[3] = Test for metabolic stability, liver microsomes; details: for Slope (−k): rat liver microsomes; for half-life / microsomal CLint: rat, pH 7.4
Description: The assay was performed with liver microsomes of rats.
The incubation solution (180 μl) consists of 90 μl of a microsomal suspension of 0.33 mg/ml protein in 100 mM phosphate buffer, pH 7.4, with 90 μl NADP-regenerating system (NADP: 1 mM, glucose-6-phosphate 5 mM, glucose-6-phosphate dehydrogenase: 5 U/ml, MgCl2 5 mM).
The reaction is started by adding 20 μl of the compound to be tested in 20% ACN to the microsome/buffer mixture preincubated at 37° C. After 0, 15, 30 and 60 minutes, 200 μl of sample solution is withdrawn and subjected to ACN precipitation. The isolation of the compounds is effected by adding 200 μl ACN that contains the internal standard (1 μM) to 200 μl of sample solution and calibration standard. After shaking for 10 s and centrifugation at 4000 g, an aliquot of the supernatant is subjected to LC-MS/MS. Two controls are included, namely a positive control with 7-ethoxycoumarin as a reference to verify the microsomal enzyme activity, and a negative control in which microsomes are used that were heated for 25 minutes without a regenerating system, in order to ensure that the loss of substance is actually due to metabolization.
The amount of compound in a sample is expressed as the percent fraction of the compound remaining as compared to time t=0 (100%). The percent fraction is plotted versus time.

estrogen receptor α = estrogen receptor α (Homo sapiens (Human), UniProt P03372); experiment: Estrogen receptor binding assay, ERα; details: relative binding affinity (estradiol: 100%)
Chain of estrogen receptor α (P03372 whole entry): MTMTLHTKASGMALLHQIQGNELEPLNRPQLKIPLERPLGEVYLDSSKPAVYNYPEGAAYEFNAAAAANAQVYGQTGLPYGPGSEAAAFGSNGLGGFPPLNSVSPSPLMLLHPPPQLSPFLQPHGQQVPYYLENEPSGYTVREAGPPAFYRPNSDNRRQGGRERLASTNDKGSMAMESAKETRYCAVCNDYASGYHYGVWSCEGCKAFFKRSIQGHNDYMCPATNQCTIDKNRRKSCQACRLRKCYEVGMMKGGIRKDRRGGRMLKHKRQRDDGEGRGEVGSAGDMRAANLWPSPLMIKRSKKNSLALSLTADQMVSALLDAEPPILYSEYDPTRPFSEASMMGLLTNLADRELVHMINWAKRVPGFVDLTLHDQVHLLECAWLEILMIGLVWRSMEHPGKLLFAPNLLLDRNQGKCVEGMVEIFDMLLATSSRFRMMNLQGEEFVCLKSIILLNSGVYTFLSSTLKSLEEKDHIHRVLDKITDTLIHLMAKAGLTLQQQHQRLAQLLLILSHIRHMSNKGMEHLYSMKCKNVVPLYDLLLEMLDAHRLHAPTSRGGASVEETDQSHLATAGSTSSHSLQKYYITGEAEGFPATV

CYP2C9 = CYP2C9 (Homo sapiens (Human), UniProt P11712); experiment: P450 inhibition assay CYP2C9
Chain of CYP2C9 (P11712 whole entry): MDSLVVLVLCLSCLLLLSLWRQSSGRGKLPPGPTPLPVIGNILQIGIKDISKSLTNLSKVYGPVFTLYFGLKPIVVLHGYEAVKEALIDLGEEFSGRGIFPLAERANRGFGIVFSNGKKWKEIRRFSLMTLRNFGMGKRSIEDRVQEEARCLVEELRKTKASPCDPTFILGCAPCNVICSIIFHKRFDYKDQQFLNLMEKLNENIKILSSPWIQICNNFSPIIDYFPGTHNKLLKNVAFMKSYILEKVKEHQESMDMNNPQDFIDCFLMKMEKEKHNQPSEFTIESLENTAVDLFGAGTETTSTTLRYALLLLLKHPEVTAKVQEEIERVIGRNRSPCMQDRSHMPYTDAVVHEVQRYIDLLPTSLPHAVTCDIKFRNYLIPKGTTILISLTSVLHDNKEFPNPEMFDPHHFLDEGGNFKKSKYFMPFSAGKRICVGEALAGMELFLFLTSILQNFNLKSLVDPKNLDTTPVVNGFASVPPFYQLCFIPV

CYP3A4 = CYP3A4 (Homo sapiens (Human), UniProt P08684); experiment: P450 inhibition assay CYP3A4; type: biochemical; details: read-out: IC50 (mean ± SD) [μM] CYP3A4
Chain of CYP3A4 (P08684 whole entry): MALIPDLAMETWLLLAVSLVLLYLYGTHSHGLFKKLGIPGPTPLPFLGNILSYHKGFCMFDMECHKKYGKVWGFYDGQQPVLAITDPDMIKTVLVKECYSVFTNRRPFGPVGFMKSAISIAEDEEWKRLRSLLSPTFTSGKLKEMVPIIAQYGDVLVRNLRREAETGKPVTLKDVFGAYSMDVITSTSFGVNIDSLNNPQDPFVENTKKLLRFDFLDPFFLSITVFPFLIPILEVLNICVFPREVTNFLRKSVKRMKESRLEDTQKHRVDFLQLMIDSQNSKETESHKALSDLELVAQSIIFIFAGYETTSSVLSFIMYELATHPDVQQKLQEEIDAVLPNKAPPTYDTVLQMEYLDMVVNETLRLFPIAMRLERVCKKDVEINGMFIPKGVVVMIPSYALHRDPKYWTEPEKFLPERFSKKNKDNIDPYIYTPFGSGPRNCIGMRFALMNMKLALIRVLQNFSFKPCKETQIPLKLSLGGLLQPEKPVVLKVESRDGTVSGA

CYP1A2 = CYP1A2 (Homo sapiens (Human), UniProt P05177); experiment: P450 inhibition assay CYP1A2
Chain of CYP1A2 (P05177 whole entry): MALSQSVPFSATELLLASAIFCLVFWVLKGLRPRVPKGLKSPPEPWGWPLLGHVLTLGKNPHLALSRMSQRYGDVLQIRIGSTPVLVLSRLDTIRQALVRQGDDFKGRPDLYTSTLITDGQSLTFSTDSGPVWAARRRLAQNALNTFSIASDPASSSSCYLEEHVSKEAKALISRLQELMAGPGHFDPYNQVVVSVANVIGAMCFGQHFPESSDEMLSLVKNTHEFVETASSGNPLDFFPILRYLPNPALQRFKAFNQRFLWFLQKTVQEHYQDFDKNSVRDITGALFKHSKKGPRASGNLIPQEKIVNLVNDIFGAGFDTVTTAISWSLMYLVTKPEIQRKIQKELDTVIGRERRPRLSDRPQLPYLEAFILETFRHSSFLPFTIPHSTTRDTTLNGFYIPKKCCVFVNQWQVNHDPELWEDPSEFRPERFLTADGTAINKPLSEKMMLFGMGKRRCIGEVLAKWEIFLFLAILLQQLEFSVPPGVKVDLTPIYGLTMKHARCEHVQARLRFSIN

CYP2C19 = CYP2C19 (Homo sapiens (Human), UniProt P33261); experiment: P450 inhibition assay CYP2C19
Chain of CYP2C19 (P33261 whole entry): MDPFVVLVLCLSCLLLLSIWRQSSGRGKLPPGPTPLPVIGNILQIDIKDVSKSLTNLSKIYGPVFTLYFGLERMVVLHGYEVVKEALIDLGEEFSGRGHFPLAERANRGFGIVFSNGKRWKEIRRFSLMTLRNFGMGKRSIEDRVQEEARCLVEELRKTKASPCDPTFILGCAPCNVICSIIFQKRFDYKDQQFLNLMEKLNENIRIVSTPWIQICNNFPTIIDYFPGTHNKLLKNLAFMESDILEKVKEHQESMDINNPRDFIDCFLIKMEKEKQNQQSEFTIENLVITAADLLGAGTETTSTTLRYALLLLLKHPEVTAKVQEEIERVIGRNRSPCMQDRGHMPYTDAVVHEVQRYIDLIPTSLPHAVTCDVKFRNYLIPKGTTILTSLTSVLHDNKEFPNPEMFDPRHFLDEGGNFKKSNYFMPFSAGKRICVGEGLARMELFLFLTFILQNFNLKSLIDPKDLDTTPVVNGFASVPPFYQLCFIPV

CYP2B6 = CYP2B6 (Homo sapiens (Human), UniProt P20813); experiment: P450 inhibition assay CYP2B6
Chain of CYP2B6 (P20813 whole entry): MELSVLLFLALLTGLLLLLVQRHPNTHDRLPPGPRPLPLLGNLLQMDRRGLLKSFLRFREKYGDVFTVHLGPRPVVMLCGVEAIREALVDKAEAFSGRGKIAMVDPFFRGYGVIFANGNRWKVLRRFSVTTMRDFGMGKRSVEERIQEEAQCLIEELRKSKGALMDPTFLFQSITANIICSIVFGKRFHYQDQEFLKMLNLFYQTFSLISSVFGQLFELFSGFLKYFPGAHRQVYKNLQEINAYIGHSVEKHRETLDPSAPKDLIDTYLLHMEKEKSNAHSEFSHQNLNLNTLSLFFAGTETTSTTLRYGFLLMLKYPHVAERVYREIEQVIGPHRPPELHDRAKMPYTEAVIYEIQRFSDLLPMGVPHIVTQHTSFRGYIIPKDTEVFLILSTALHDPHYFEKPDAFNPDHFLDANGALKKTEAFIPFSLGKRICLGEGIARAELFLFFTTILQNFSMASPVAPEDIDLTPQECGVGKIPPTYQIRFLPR

[4] = In vivo pharmacokinetics (rat), single oral administration; details: single oral administration 50 mg/kg, male Wistar rats; for AUC(0-t) / Tmax / AUC(0-inf): rat, plasma; for AUC(0-inf): extrapolated to ∞

## Oc1cccc(-c2ccc3cc(O)ccc3c2)c1 [Compound 19, 6-(3-Hydroxyphenyl)-2-naphthol]
17β-HSD2; inhibitor 100 nM
  inhibition at 0.1 µM: 12.4%
17β-HSD2; inhibitor 1 μM
  inhibition at 1 µM: 16.6%
17β-HSD1; inhibitor 1 μM
  inhibition at 1 µM: 94%
17β-HSD1; inhibitor 100 nM
  inhibition at 0.1 µM: 91.4%
CYP2D6
  IC50: 32.6 ± 0.72 µM
Estrogen receptor β
  RBA ERβ [%]: 0.80%
[1]
  Papp at 180 min, 50 μM: 8.9 ×10⁻⁶ cm/s
CaCo-2 cells
  mass balance [% ± SD]: 37.5 ± 3.0%
  Permeability: moderate
  final basolateral concentration [μM ± SD]: 6.5 ± 0.2 µM
[2]
  T1/2z: 4.4 h
  tz: 24.0 h
  AUC(0-t): 29700 ng·h/mL
  Tmax: 6 h
  AUC(0-inf): 30700 ng·h/mL
[3]
  Slope (−k): −0.055
[3]; microsomes
  half-life: 12.6 min
  microsomal CLint: 367 µL/min/mg
Estrogen receptor α
  RBA ERα [%]: 0.23%

## N#Cc1cc(O)cc2ccc(-c3cccc(O)c3)cc12 [Compound 54, 3-Hydroxy-7-(3-hydroxyphenyl)-1-naphthonitrile]
17β-HSD1; inhibitor 1 μM
  inhibition at 1 µM: 94%
17β-HSD1; inhibitor 100 nM
  inhibition at 0.1 µM: 83%
[1]
  Papp at 180 min, 50 μM: 4.4 ×10⁻⁶ cm/s
CaCo-2 cells
  mass balance [% ± SD]: 30.5 ± 3.1%
  Permeability: moderate
  final basolateral concentration [μM ± SD]: 3.7 ± 0.3 µM
CYP2C9
  IC50: 0.224 ± 0.002 µM
CYP3A4
  IC50: 2.05 ± 0.18 µM
CYP1A2
  IC50: 259 ± 10 nM
CYP2C19
  IC50: 1.21 ± 0.19 µM

## Oc1cccc(-c2ccc3c(-c4cccnc4)c(O)ccc3c2)c1 [Compound 59, 6-(3-Hydroxyphenyl)-1-(pyridin-3-yl)naphthalene-2-ol]
17β-HSD2; inhibitor 100 nM
  inhibition at 0.1 µM: 66.1%
17β-HSD2; inhibitor 1 μM
  inhibition at 1 µM: 90.3%
17β-HSD1
  inhibition at 1 µM: 92.3%
  inhibition at 0.1 µM: 87.4%
CYP2B6; read-out: IC50 (mean ± SD) [μM] CYP2B6
  IC50: 5.34 ± 0.391 µM
CYP2D6
  IC50: 22.9 ± 1.85 µM
[1]
  Papp at 180 min, 50 μM: 13.8 ×10⁻⁶ cm/s
CaCo-2 cells
  mass balance [% ± SD]: 29.9 ± 2.4%
  Permeability: high
  final basolateral concentration [μM ± SD]: 11.0 ± 0.5 µM
CYP2C9; read-out: IC50 (mean ± SD) [μM] CYP2C9
  IC50: 0.15 ± 0.03 µM
[3]
  Slope (−k): −0.051
[3]; liver microsomes
  half-life: 13.6 min
  microsomal CLint: 340 µL/min/mg
CYP3A4
  IC50: 0.221 ± 0.002 µM
[4]
  AUC(0-t): 203 ng·h/mL
  Tmax: 2 h
  AUC(0-inf): 203 ng·h/mL
  t1/2z: 1.54 h
  tz: 8.0 h
CYP1A2
  IC50: 14 nM
CYP2C19; read-out: IC50 (mean ± SD) [μM] CYP2C19
  IC50: 0.88 ± 0.03 µM

## COc1ccc(-c2c(O)ccc3cc(-c4cccc(O)c4)ccc23)cn1 [Compound 62, 6-(3-Hydroxyphenyl)-1-(6-methoxypyridin-3-yl)naphthalene-2-ol]
17β-HSD2
  inhibition at 0.1 µM: 24.3%
  inhibition at 1 µM: 67.2%
17β-HSD1; inhibitor 1 μM
  inhibition at 1 µM: 89.2%
17β-HSD1; inhibitor 100 nM
  inhibition at 0.1 µM: 85.9%
CYP2B6
  IC50: 10.4 ± 0.14 µM
CYP2D6
  IC50: 40 ± 0.08 µM
[3]
  Slope (−k): −0.014
[3]; liver microsomes
  microsomal CLint: 92.8 µL/min/mg
CYP3A4
  IC50: 1.07 ± 0.05 µM

## Nc1cccc(-c2c(O)ccc3cc(-c4cccc(O)c4)ccc23)c1 [Compound 68, 1-(3-Aminophenyl)-6-(3-hydroxyphenyl)naphthalene-2-ol]
17β-HSD2; inhibitor 100 nM
  inhibition at 0.1 µM: < 10%
17β-HSD2; inhibitor 1 μM
  inhibition at 1 µM: 39.1%
17β-HSD1; inhibitor 1 μM
  inhibition at 1 µM: 87.3%
17β-HSD1; inhibitor 100 nM
  inhibition at 0.1 µM: 74.1%
[1]
  Papp at 180 min, 50 μM: 16.4 ×10⁻⁶ cm/s
CaCo-2 cells
  mass balance [% ± SD]: 52.7 ± 3.6%
  Permeability: high
  final basolateral concentration [μM ± SD]: 13.9 ± 0.8 µM
[2]
  T1/2z: 2.4 h
  tz: 24.0 h
  AUC(0-t): 539 ng·h/mL
  Tmax: 2 h
  AUC(0-inf): 540 ng·h/mL
[4]
  AUC(0-t): 337 ng·h/mL
  Tmax: 2 h
  AUC(0-inf): 337 ng·h/mL
  t1/2z: 1.59 h
  tz: 8.0 h
